Data published in patent US7625889B2, “Substituted bis aryl and heteroaryl compounds as selective 5HT2A antagonists” (Aventis Pharmaceuticals Inc., priority 2005, dated 2009).
Structures can show the parent of a compound that is named as a salt.

Biological target: T1, human 5HT2A receptor (Homo sapiens, UniProt P28223)
T1 construct: expressed in transfected cells
Assay: Receptor Binding Assay, 5HT2A ([3H]N-methyl spiperone)
Conditions: BHK cells expressing human 5HT2A receptor, 2.5 nM [3H]N-methyl spiperone, 37° C.
Experimental: Cell Culture: BHK cells stably expressing the human 5HT2A receptor were maintained in Dulbecco's Modified Eagle's Medium supplemented with […] Geneticin, 1% Sodium Pyruvate, 1% Pen-Strep and 10% Fetal Calf Serum, and treated with 5 mM sodium butyrate for 24 h to increase receptor expression before harvesting. Cells were harvested by mechanical scraping, washed with Phosphate Buffered Saline, and stored at −80° C. in 10% DMSO in 1 mg/mil aliquots until used. Protein determination was made according to Lowry.
Receptor Binding Assays: The 5HT2A and D2L assays were conducted at 37° C. in a Tris buffer containing salts (50 mM Tris Buffer, pH 7.7; 120 mM NaCl; 5 mM KCl; 2 mM CaCl2; 1 mM MgCl2). Cell membranes (previously prepared and frozen) were rapidly thawed. Membranes were diluted to an appropriate concentration (to produce 100 μg protein/assay point for 5HT2A, and 58 μg protein/assay point for D2L) in Tris buffer and homogenized. Assays were conducted on 96-well plates, using 2.5 and 1 nM [^3H]N-methyl spiperone as radioligand for 5HT2A and D2L assays, respectively. Plates were incubated at 37° C. in a shaking water bath for 30 and 60 min, for 5HT2A and D2L, respectively. Nonspecific binding was defined using 100 μM methylsergide and eticlopride, for 5HT2A and D2L, respectively.
Assays were terminated by rapid filtration through Millipore MAFB or MAFC (5HT2C) filter plates (presoaked in 50 mM Tris HCl, pH 7.7, with 0.1% Brij) using a Millipore Cell Harvester. The filter plates were then washed with ice-cold 50 mM Tris buffer, pH 7.7, and allowed to dry overnight. 50 μl of Microscint scintillation cocktail were added and the plates were counted in a Packard Topcount scintillation counter.
IC50 and Ki calculations were performed using nonlinear regression one-site competition analysis (GraphPad, Prism), with top and bottom limits held constant at 0% and 100% inhibition, respectively. The percent inhibition at each drug concentration was the average of duplicate determinations. Except where indicated, each determination was performed 2 to 5 times.

T1 sequence (P28223 whole entry): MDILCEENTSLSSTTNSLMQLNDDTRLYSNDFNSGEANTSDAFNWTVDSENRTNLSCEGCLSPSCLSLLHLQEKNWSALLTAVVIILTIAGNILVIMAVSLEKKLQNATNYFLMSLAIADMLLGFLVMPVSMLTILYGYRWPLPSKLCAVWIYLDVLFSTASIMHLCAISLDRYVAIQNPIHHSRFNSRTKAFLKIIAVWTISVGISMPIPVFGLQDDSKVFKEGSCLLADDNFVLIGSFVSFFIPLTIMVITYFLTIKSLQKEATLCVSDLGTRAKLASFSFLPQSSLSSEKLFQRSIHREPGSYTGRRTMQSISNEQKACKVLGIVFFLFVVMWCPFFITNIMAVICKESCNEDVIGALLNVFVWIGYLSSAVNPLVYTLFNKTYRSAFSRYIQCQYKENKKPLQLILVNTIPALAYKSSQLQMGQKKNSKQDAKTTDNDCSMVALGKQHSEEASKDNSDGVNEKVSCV

Structure (SMILES)	Ki [nM]
CN1CCC(N(Cc2cc(-c3ccc4[nH]nnc4c3)ccc2F)C(=O)c2ccc(F)cc2)CC1 [Example 69, N-[5-(1H-Benzotriazol-5-yl)-2-fluoro-benzyl]-N-(1-methyl-piperidin-4-yl)-4-fluoro-benzamide]	1.35
CN1CCC(N(Cc2ccc(F)cc2)Cc2cc(-c3ccc4[nH]ccc4c3)ccc2F)CC1 [Example 70, (4-Fluoro-benzyl)-[2-fluoro-5-(1H-indol-5-yl)-benzyl]-(1-methyl-piperidin-4-yl)-amine]	0.72
CN(C)CCN(Cc1ccc(F)cc1)Cc1cc(-c2ccc3[nH]ccc3c2)ccc1F [Example 72]	2.37
CN(C)CCN(Cc1cncc(-c2ccc3[nH]ccc3c2)c1)C(=O)c1ccc(F)cc1 [Example 74, N-(2-Dimethylamino-ethyl)-4-fluoro-N-[5-(1H-indol-5-yl)-pyridin-3-ylmethyl]-benzamide trifluoroacetate]	1.05
O=C(c1ccc(F)cc1)N(CCN1CCCC1)Cc1ccc(-c2ccc3[nH]ccc3c2)s1 [Example 75]	2.14
CN1CCC(N(Cc2cc(-c3ccc4[nH]ccc4c3)co2)C(=O)c2ccc(F)cc2)CC1 [Example 76]	4.74
O=C(c1ccc(F)cc1)N(Cc1cc(-c2ccc3[nH]ccc3c2)ccc1F)[C@H]1CN2CCC1CC2 [Example 77, N-(1-Aza-bicyclo[2.2.2]oct-3R-yl)-4-fluoro-N-[2-fluoro-5-(1H-indol-6-yl)-benzyl]-benzamide]	0.49
O=C(c1ccc(F)cc1)N(Cc1cc(-c2ccc3[nH]c(=O)oc3c2)ccc1F)C1CN2CCC1CC2 (stereo not drawn) [Example 78]	0.76
O=C(c1ccc(F)cc1)N(Cc1cc(-c2ccc3[nH]c(=O)oc3c2)ccc1F)[C@H]1CN2CCC1CC2 [Example 79]	0.61
Fc1ccc(CN(Cc2cc(-c3ccc4[nH]nnc4c3)ccc2F)C[C@H]2CCCN2)cc1 [Example 80, [5-(1H-Benzothiazol-5-yl)-2-fluoro-benzyl]-(4-fluoro-benzyl)-pyrrolidin-2R-ylmethyl-amine trihydrochloride]	14.9
Fc1ccc(CN(Cc2cc(-c3ccc4[nH]ncc4c3)ccc2F)C[C@@H]2CCCN2)cc1 [Example 81]	2
Fc1ccc(CN(Cc2cc(-c3ccc4[nH]ncc4c3)ccc2F)C2CCNCC2)cc1 [Example 82]	0.51
CNCCN(Cc1ccc(F)cc1)Cc1cc(-c2ccc3[nH]ncc3c2)ccc1F [Example 83, N-(4-Fluoro-benzyl)-N-[2-fluoro-5-(1H-indazol-5-yl)-benzyl]-N′-methyl-ethane-1,2-diamine]	0.82
Fc1ccc(-c2ccc3[nH]nnc3c2)cc1CN(Cc1cccs1)C1CCNCC1 [Example 84, [5-(1H-Benzotriazol-5-yl)-2-fluoro-benzyl]-piperidin-4-yl-thiophen-2-ylmethyl-amine]	0.37
Fc1ccc(CN(Cc2cc(-c3ccc4[nH]nnc4c3)ccc2F)C2CCNCC2)cc1 [Example 85, [5-(1H-Benzotriazol-5-yl)-2-fluoro-benzyl]-(4-fluoro-benzyl)-piperidin-4-yl-amine]	0.42
CNCCN(Cc1ccc(F)cc1)Cc1cc(-c2ccc3[nH]nnc3c2)ccc1F [Example 86, N-[5-(1H-Benzotriazol-5-yl)-2-fluoro-benzyl]-N-(4-fluoro-benzyl)-N′-methyl-ethane-1,2-diamine]	1.68
CCN1CCC[C@H]1CN(Cc1ccc(F)cc1)Cc1cc(-c2ccc3[nH]nnc3c2)ccc1F [Example 87, [5-(1H-Benzotriazol-5-yl)-2-fluoro-benzyl]-(1-ethyl-pyrrolidin-2S-ylmethyl)-(4-fluoro-benzyl)-amine hydrochloride]	14.2
CN1CCC(N(Cc2ccc(F)cc2)Cc2cc(-c3ccc4[nH]nnc4c3)ccc2F)CC1 [Example 88, [5-(1H-Benzotriazol-5-yl)-2-fluoro-benzyl]-(4-fluoro-benzyl)-(1-methyl-piperidin-4-yl)-amine hydrochloride]	1.16

Structure (SMILES)	Ki [nM]
CN1CCC(N(Cc2ccc(F)cc2)Cc2cc(-c3ccc4[nH]c(=O)oc4c3)ccc2F)CC1 [Example 89, 6-(4-Fluoro-3-{[(4-fluoro-benzyl)-(1-methyl-piperidin-4-yl)-amino]-methyl}-phenyl)-3H-benzooxazol-2-one]	1
CN1CCC(N(Cc2ccc(F)cc2)Cc2cc(-c3ccc4[nH]ncc4c3)ccc2F)CC1 [Example 90, (4-Fluoro-benzyl)-[2-fluoro-5-(1H-indazol-5-yl)-benzyl]-(1-methyl-piperidin-4-yl)-amine]	0.42
CN1CCN(Cc2cc(-c3ccc4[nH]ccc4c3)ccc2F)C(c2ccco2)C1 (stereo not drawn) [Example 93, 5-[4-Fluoro-3-(2-furan-2-yl-4-methyl-piperazin-1-ylmethyl)-phenyl]-1H-indole]	0.6
CN1CCN(Cc2cc(-c3ccc4[nH]ncc4c3)ccc2F)[C@@H](c2ccc(F)cc2)C1 [Example 96, 5-{4-Fluoro-3-[2S-(4-fluoro-phenyl)-4-methyl-piperazin-1-ylmethyl]-phenyl}-1H-indazole]	0.89
CN1CCN(Cc2cc(-c3ccc4[nH]c(=O)oc4c3)ccc2F)[C@@H](c2ccc(F)cc2)C1 [Example 97, 6-{4-Fluoro-3-[2S-(4-fluoro-phenyl)-4-methyl-piperazin-1-ylmethyl]-phenyl}-3H-benzooxazol-2-one]	0.77
CN1CCN(Cc2cncc(-c3ccc4[nH]ncc4c3)c2)[C@@H](c2ccc(F)cc2)C1 [Example 99, 5-{5-[2S-(4-Fluoro-phenyl)-4-methyl-piperazin-1-ylmethyl]-pyridin-3-yl}-1H-indazole]	0.29
O=C(c1ccc(F)cc1)N(CCCN1CCCC1)Cc1cc(-c2ccc3[nH]ncc3c2)ccc1F [Example 100, 4-Fluoro-N-[2-fluoro-5-(1H-indazol-5-yl)-benzyl]-N-(3-pyrrolidin-1-yl-propyl)-benzamide]	0.6
O=C(c1ccc(F)cc1)N(CCN1CCCC1)Cc1cc(-c2ccc3[nH]nnc3c2)ccc1F [Example 101, N-[5-(1H-Benzotriazol-5-yl)-2-fluoro-benzyl]-4-fluoro-N-(2-pyrrolidin-1-yl-ethyl)-benzamide]	0.39
CN1CCC(N(Cc2cc(-c3ccc4[nH]ncc4c3)ccc2F)C(=O)c2ccc(F)cc2)CC1 [Example 102, 4-Fluoro-N-[2-fluoro-5-(1H-indazol-5-yl)-benzyl]-N-(1-methyl-piperidin-4-yl)-benzamide]	0.88
O=C(c1ccc(F)cc1)N(Cc1cc(-c2ccc3[nH]ncc3c2)ccc1F)[C@H]1CN2CCC1CC2 [Example 103, N-(1-Aza-bicyclo[2.2.2]oct-3R-yl)-4-fluoro-N-[2-fluoro-5-(1H-indazol-5-yl)-benzyl]-benzamide]	1.01
CN1CCC(N(Cc2cc(-c3ccc4[nH]ccc4c3)ccc2F)C(=O)c2ccncn2)CC1 [Example 105, Pyrimidine-4-carboxylic acid [2-fluoro-5-(1H-indol-5-yl)-benzyl]-(1-methyl-piperidin-4-yl)-amide]	3.8
CN1CCC(N(Cc2cc(-c3ccc4[nH]ccc4c3)ccc2F)C(=O)c2cccnn2)CC1 [Example 106, Pyridazine-3-carboxylic acid [2-fluoro-5-(1H-indol-5-yl)-benzyl]-(1-methyl-piperidin-4-yl)-amide]	9
CN1CCC(N(Cc2cc(-c3ccc4[nH]ccc4c3)ccc2F)C(=O)c2ccnnc2)CC1 [Example 107, Pyridazine-4-carboxylic acid [2-fluoro-5-(1H-indol-5-yl)-benzyl]-(1-methyl-piperidin-4-yl)-amide]	85
CN1CCC(N(Cc2cc(-c3ccc4[nH]ccc4c3)ccc2F)C(=O)c2ncccn2)CC1 [Example 108, Pyrimidine-2-carboxylic acid [2-fluoro-5-(1H-indol-5-yl)-benzyl]-(1-methyl-piperidin-4-yl)-amide]	16
CC(C)Oc1ccc(C(=O)N(Cc2cc(-c3ccc4[nH]ccc4c3)ccc2F)C2CCN(C)CC2)cc1 [Example 110, N-[2-Fluoro-5-(1H-indol-5-yl)-benzyl]-4-isopropoxy-N-(1-methyl-piperidin-4-yl)-benzamide]	85
CC(C)Oc1cccc(C(=O)N(Cc2cc(-c3ccc4[nH]ccc4c3)ccc2F)C2CCN(C)CC2)c1 [Example 111, N-[2-Fluoro-5-(1H-indol-5-yl)-benzyl]-3-isopropoxy-N-(1-methyl-piperidin-4-yl)-benzamide]	85
CN1CCC(N(Cc2cc(-c3ccc4[nH]ccc4c3)ccc2F)C(=O)c2ccc(OC(F)(F)F)cc2)CC1 [Example 112, N-[2-Fluoro-5-(1H-indol-5-yl)-benzyl]-N-(1-methyl-piperidin-4-yl)-4-trifluoromethoxy-benzamide]	6
Fc1ccc([C@H]2CNCCN2Cc2cncc(-c3ccc4[nH]ncc4c3)c2)cc1 [Example 113, 5-{5-[2S-(4-Fluoro-phenyl)-piperazin-1-ylmethyl]-pyridin-3-yl}-1H-indazole]	0.4
